Measurements taken from US20210386721A1, “SUBSTITUTED PHENYLPROPENYL PYRIDINE DERIVATIVES, THEIR PREPARATION AND PHARMACEUTICAL APPLICATIONS” (SHANGHAI HAIYAN PHARMACEUTICAL TECHNOLOGY CO., LTD., priority 2019, published 2021).

Target: T1, PD-1/PD-L1 (Homo sapiens, UniProt Q9NZQ7)
T1 construct: purchased Cisbio 63ADK000CPDPEB
Assay: PD-1/PD-L1 binding assay (HTRF, PPI-HTRF)
Details: HTRF PD1/PD-L1 binding assay kit; 10 nM Tag1-PD-L1; 25° C.
Experimental: Assay 1 PD-1/PD-L1 Binding Assay
DMSO is from Sigma, Cat No: D5879; 384-well small volume plate (white) is from Greiner, Cat No: 784075; Anti-PD1 blocking antibody (IC50: 10 nM) is from Cisbio, Cat No: 64CUS000C-1a; Anti-PDL1 blocking antibody (IC50: 0.3 nM) is from Cisbio, Cat No: 64CUS000C-1b; HTRF PD1/PD-L1 binding assay kit is from Cisbio, Cat No: 63ADK000CPDPEB.
1. Prepare the compound to be tested at 2x concentration into 1× reaction buffer containing 4% DMSO;
2. Tag1-PD-L1 protein and Tag2-PD1 protein were prepared in 1× reaction buffer at concentrations of […] and 10 nM, respectively. The final reaction concentration of the experiment was 10 nM Tag1-PD-L1 and 2 nM […];
3. anti-Tag1-Eu3+ antibody is prepared in 1x concentration detection buffer at a ratio of 1:100;
4. anti-Tag2-XL665 antibody is prepared in 1x concentration detection buffer at a ratio of 1:25; Experimental steps
1. 5 μL of compounds to be tested (2×) was added;
2. 2.5 ul Tag1-PD-L1 protein and 2.5 ul Tag2-PD1 protein were added respectively, and the total reaction system is 10 ul, and reacted at 25° C. for 15 minutes;
3. 5 ul anti-Tag1-Eu3+ antibody and 5 ul anti-Tag2-XL665 antibody were added respectively, and reacted at 25° C. for 16 hours;
4. The fluorescence microplate reader HTRF reading program was used to read two readings at 665 nm and 620 nm, the ratio of the two wavelengths was used to judge the activity of the compound, and the IC50 of the compound to be tested is calculated by XLFIT5.0 (IDBS).

T1 sequence (Q9NZQ7 19-238 limits assumed): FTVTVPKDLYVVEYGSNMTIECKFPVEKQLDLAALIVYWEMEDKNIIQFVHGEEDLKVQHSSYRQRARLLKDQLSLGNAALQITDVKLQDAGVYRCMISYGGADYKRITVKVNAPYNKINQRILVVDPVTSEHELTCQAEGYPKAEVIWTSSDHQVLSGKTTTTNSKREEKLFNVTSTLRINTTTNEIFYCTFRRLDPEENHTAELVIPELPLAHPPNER

| IC50 | SMILES |
| --- | --- |
| 2 nM | Cc1cc(/C=C/c2nccc(-c3cccc(NC(=O)c4ccc(CN5CCCC[C@@H]5C(=O)O)cn4)c3C)c2C#N)c(Cl)cc1CN1CC[C@@H](O)C1 [Z-6, (R)-1-((6-((3-(2-((E)-2-chloro-4-(((R)-3-hydroxypyrrolidin-1-yl)methyl)-5-methylstyryl)-3-cyanopyridin-4-yl)-2-methylphenyl)carbamoyl)pyridin-3-yl)methyl)piperidine-2-carboxylic Acid] |
| 1 nM | Cc1cc(/C=C/c2nccc(-c3cccc(Nc4nccc5cc(CN6CC[C@@H](O)C6)cnc45)c3C)c2C#N)c(Cl)cc1CN1CCCC[C@H]1C(=O)O [Z-7, (S)-1-(5-chloro-4-((E)-2-(3-cyano-4-(3-((3-(((R)-3-hydroxypyrrolidin-1-yl)methyl)-1,7-naphthyridin-8-yl)amino)-2-methylphenyl)pyridin-2-yl)vinyl)-2-methylbenzyl)piperidine-2-carboxylic Acid] |
| 2 nM | COc1cc(/C=C/c2nccc(-c3cccc(Nc4nccc5cc(CN6CC[C@@H](O)C6)cnc45)c3C)c2C#N)c(C(F)(F)F)cc1CN1CC[C@@H](C(=O)O)C1 [Z-13] |
| 1 nM | Cc1cc(/C=C/c2nccc(-c3cccc(-c4nc5cc(CN6CC[C@@H](O)C6)cc(Cl)c5o4)c3C)c2C#N)c(Cl)cc1CN1CC[C@@H](C(=O)O)C1 [Z-46] |
| 1 nM | Cc1cc(/C=C/c2nccc(-c3cccc(-c4nc5cc(CN6CC[C@@H](O)C6)ccc5o4)c3C)c2C#N)c(Cl)cc1CN1CC[C@@H](C(=O)O)C1 [Z-47] |
| 2 nM | Cc1cc(/C=C/c2nccc(-c3cccc(-c4nc5cc(CN6CC[C@@H](C(=O)O)C6)cc(Cl)c5o4)c3C)c2C#N)c(C(F)(F)F)cc1CN1CC[C@@H](O)C1 [Z-48] |
| 1 nM | COc1cc(/C=C/c2nccc(-c3cccc(-c4nc5cc(CN6CC[C@@H](C(=O)O)C6)cc(C#N)c5o4)c3C)c2C#N)c(C(F)(F)F)cc1CN1CC[C@@H](O)C1 [Z-50] |
| 2 nM | Cc1cc(/C=C/c2nccc(-c3cccc(-c4nc5c(s4)CN(C(=O)CN(C)C)CC5)c3C)c2C#N)c(Cl)cc1CN1CC[C@@H](C(=O)O)C1 [Z-61, (R,E)-1-(5-chloro-4-(2-(3-cyano-4-(3-(5-(dimethylglycyl)-4,5,6,7-tetrahydrothiazolo [5,4-c]pyridin-2-yl)-2-methylphenyl)pyridin-2-yl)vinyl)-2-methylbenzyl)pyrrolidine-3-carboxylic Acid] |
| 18 nM | Cc1c(NC(=O)c2ccc(CN3CC[C@@H](O)C3)cn2)cccc1-c1ccnc(/C=C/c2cc3nc(CN4CC[C@H](C(=O)O)C4)oc3cc2Cl)c1C#N [Z-64] |
| < 1 nM | Cc1cc(/C=C/c2nccc(-c3cccc(NC(=O)c4ccc(CN5CC[C@@H](O)C5)cn4)c3C)c2C)c(Cl)cc1CN1CC[C@@H](C(=O)O)C1 [Z-65] |
| 2 nM | Cc1cc(/C=C/c2nccc(-c3cccc(NC(=O)c4nc5c(n4C)CCN(C)C5)c3C)c2C#N)c(Cl)cc1CN1CCCC[C@H]1C(=O)O [Z-66, (S,E)-1-(5-chloro-4-(2-(3-cyano-4-(3-(1,5-dimethyl-4,5,6,7-tetrahydro-1H-imidazo[4,5-c]pyridine-2-carboxamido)-2-methylphenyl)pyridin-2-yl)vinyl)-2-methylbenzyl)piperidine-2-carboxylic Acid] |
| 1 nM | Cc1cc(/C=C/c2nccc(-c3cccc(NC(=O)c4ccc(CN5CC[C@@H](O)C5)cn4)c3C)c2C#N)c(Cl)cc1CN1CCC(C)(C(=O)O)C1 (stereo partly drawn) [Z-67, 1-(5-chloro-4-((E)-2-(3-cyano-4-(3-(5-(((R)-3-hydroxypyrrolidin-1-yl)methyl)picolinamido)-2-methylphenyl)pyridin-2-yl)vinyl)-2-methylbenzyl)-3-methylpyrrolidine-3-carboxylic Acid] |
| 1 nM | Cc1cc(/C=C/c2nccc(-c3cccc(NC(=O)c4ccc(CN5CC[C@@H](O)C5)cn4)c3C)c2C#N)c(Cl)cc1CN1CC[C@@H](C(=O)O)C1 [Z-68] |
| 57 nM | Cc1c(NC(=O)c2ccc(CN3CC[C@@H](O)C3)cn2)cccc1-c1ccnc(/C=C/c2ccc(CN3CC[C@@H](C(=O)O)C3)cn2)c1C#N [Z-69] |

More lines, now with the values behind:

| SMILES | IC50 |
| --- | --- |
| Cc1c(NC(=O)c2ccc(CNCCO)cn2)cccc1-c1ccnc(/C=C/c2ccc3c(c2)CCN(CC(=O)O)C3)c1C#N [Z-3, (E)-2-(6-(2-(3-cyano-4-(3-(5-(((2-hydroxyethyl)amino)methyl)picolinamido)-2-methylphenyl)pyridin-2-yl)vinyl)-3,4-dihydroisoquinolin-2(1H)-yl)acetic Acid] | 9 nM |
| Cc1cc(/C=C/c2nccc(-c3cccc(NC(=O)c4ccc(CNCCO)cn4)c3C)c2C#N)c(F)cc1CNCCO [Z-4, (E)-N-(3-(3-cyano-2-(2-fluoro-4-(((2-hydroxyethyl)amino)methyl)-5-methylstyryl)pyridin-4-yl)-2-methylphenyl)-5-(((2-hydroxyethyl)amino)methyl)picolinamide] | < 1 nM |
| COc1cc(/C=C/c2cccc(-c3cccc(Nc4nccc5cc(CN6CC[C@@H](O)C6)c(C(F)(F)F)nc45)c3C)c2C)c(C(F)(F)F)cc1CN1CC[C@@H](C(=O)O)C1 [Z-10, (R)-1-(4-((E)-2-(3′-((3-(((R)-3-hydroxypyrrolidin-1-yl)methyl)-2-(trifluoromethyl)-1,7-naphthyridin-8-yl)amino)-2,2′-dimethyl-[1,1′-biphenyl]-3-yl)vinyl)-2-methoxy-5-(trifluoromethyl)benzyl)pyrrolidine-3-carboxylic Acid] | 3 nM |
| COc1cc(/C=C/c2cccc(-c3cccc(Nc4n[nH]c5ccc(CN6CC[C@@H](O)C6)cc45)c3C)c2C)c(C(F)(F)F)cc1CN1CC[C@@H](C(=O)O)C1 [Z-15, (R)-1-(4-((E)-2-(3′-((5-(((R)-3-hydroxypyrrolidin-1-yl)methyl)-1H-indazole-3-yl)amino)-2,2′-dimethyl-[1,1′-biphenyl]-3-yl)vinyl)-2-methoxy-5-(trifluoromethyl)benzyl)pyrrolidine-3-carboxylic Acid] | 3 nM |
| COc1cc(/C=C/c2cccc(-c3cccc(-c4nc5cc(CN6CC[C@@H](O)C6)ccc5o4)c3C)c2C)c(C(F)(F)F)cc1CN1CC[C@@H](C(=O)O)C1 [Z-16] | 1 nM |
| Cc1cc(/C=C/c2cccc(-c3cccc(-c4nc5cc(CN6CC[C@@H](O)C6)ccc5o4)c3C)c2C)c(C(F)(F)F)cc1CN1CC[C@@H](C(=O)O)C1 [Z-17] | 1 nM |
| COc1cc(/C=C/c2cccc(-c3cccc(-c4nc5cc(CN6CC[C@@H](O)C6)ccc5o4)c3C)c2C#N)c(C(F)(F)F)cc1CN1CC[C@@H](C(=O)O)C1 [Z-19] | 2 nM |
| COc1cc(/C=C/c2cccc(-c3cccc(-c4nc5cc(CN6CC[C@@H](O)C6)ccc5o4)c3C)c2F)c(C(F)(F)F)cc1CN1CC[C@@H](C(=O)O)C1 [Z-20] | 2 nM |
| COc1cc(/C=C/c2cccc(-c3cccc(-c4nc5cc(CN6CC[C@@H](O)C6)cc(Cl)c5o4)c3C)c2C)c(C(F)(F)F)cc1CN1CC[C@@H](C(=O)O)C1 [Z-22] | 2 nM |
| COc1cc(/C=C/c2cccc(-c3cccc(-c4nc5cc(CN6CC[C@@H](C(=O)O)C6)cc(C#N)c5o4)c3C)c2F)c(C(F)(F)F)cc1CN1CC[C@@H](O)C1 [Z-25] | 1 nM |
| COc1cc(/C=C/c2cccc(-c3cccc(-c4nc5cc(CN6CC[C@@H](C(=O)O)C6)cc(C#N)c5o4)c3F)c2C)c(C(F)(F)F)cc1CN1CC[C@@H](O)C1 [Z-28] | 5 nM |
| COc1cc(/C=C/c2cccc(-c3cccc(-c4nc5cc(CN6CC[C@@H](C(=O)O)C6)ccc5o4)c3C)c2C)c(C(F)(F)F)cc1CN1CC[C@H](O)C1 [Z-31] | 2 nM |
| COc1cc(/C=C/c2cccc(-c3cccc(-c4nc5cc(CN6CC[C@H](C(=O)O)C6)ccc5o4)c3C)c2C)c(C(F)(F)F)cc1CN1CC[C@H](O)C1 [Z-32] | 2 nM |
| COc1cc(/C=C/c2cccc(-c3cccc(-c4nc5cc(CN6CC[C@@H](O)C6)cc(C#N)c5o4)c3C)c2C)c(C(F)(F)F)cc1CN1CC[C@@H](O)C1 [Z-37] | 1 nM |
| COc1cc(/C=C/c2cccc(-c3cccc(-c4nc5cc(CN6CCC[C@H]6C(=O)O)cc(C#N)c5o4)c3C)c2C)c(C(F)(F)F)cc1CN1CC[C@@H](O)C1 [Z-39] | 1 nM |
| COc1cc(/C=C/c2cccc(-c3cccc(-c4nc(OC)c(CNC[C@@H]5CCC(=O)N5)cc4Cl)c3C)c2C)c(C(F)(F)F)cc1CN1CC[C@@H](C(=O)O)C1 [Z-55] | 3 nM |
| COc1cc(/C=C/c2cccc(-c3cccc(OC4CCc5cc(CN6CC[C@@H](O)C6)ccc54)c3Cl)c2C)c(C(F)(F)F)cc1CN1CC[C@@H](C(=O)O)C1 (stereo partly drawn) [Z-62, (3R)-1-(4-((E)-2-(2′-chloro-3′-((5-(((R)-3-hydroxypyrrolidin-1-yl)methyl)-2,3-dihydro-1H-inden-1-yl)oxy)-2-methyl-[1,1′-biphenyl]-3-yl)vinyl)-2-methoxy-5-(trifluoromethyl)benzyl)pyrrolidine-3-carboxylic Acid] | 3 nM |
| Cc1c(NC(=O)c2ccc(CNCCO)cn2)cccc1-c1ccnc(/C=C/c2ccc3c(c2)CCN(CCO)C3)c1C#N [Z-63] | 32 nM |
